Experimental data: patent US20100216767A1, “QUINAZOLINES FOR PDK1 INHIBITION” (priority 2006, published 2010)

Biological target: T1, PDK1 kinase (Homo sapiens, UniProt O15530)
T1 sequence (O15530 1-556): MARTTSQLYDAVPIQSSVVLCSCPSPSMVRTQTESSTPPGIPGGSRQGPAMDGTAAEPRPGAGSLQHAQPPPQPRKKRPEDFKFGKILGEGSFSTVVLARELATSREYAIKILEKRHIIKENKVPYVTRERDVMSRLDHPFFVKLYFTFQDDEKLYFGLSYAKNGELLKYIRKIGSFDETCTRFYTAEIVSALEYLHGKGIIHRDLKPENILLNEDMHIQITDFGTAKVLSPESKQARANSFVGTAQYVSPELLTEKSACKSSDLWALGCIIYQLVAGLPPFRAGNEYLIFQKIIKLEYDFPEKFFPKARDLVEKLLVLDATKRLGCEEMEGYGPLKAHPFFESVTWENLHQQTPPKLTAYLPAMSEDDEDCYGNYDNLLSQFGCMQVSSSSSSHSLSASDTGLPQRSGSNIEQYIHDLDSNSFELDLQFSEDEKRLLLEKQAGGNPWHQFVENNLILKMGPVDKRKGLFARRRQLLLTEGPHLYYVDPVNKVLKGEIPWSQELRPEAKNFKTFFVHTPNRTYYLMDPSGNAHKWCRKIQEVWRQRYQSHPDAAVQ
Assay: PDK1 Kinase Alpha Screen Assay
Assay type: biochemical
Conditions: Table 1; 10 μM ATP, 50 nM PDK1-4 peptide
Procedure, shortened: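 PDK1 phosphorylation of 50 nM biotinylated PDK1-4 peptide with 10 μM ATP in 50 mM Tris pH 7.5, 10 mM MgCl2, 0.1% BSA, 0.01% Tween-20, 2 mM DTT, 2.5% DMSO, 3-18 h. Stopped with EDTA; phosphopeptide detected by AlphaScreen using phospho-(Ser/Thr) PKA substrate antibody on protein A acceptor and streptavidin donor beads, overnight at room temperature.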

Row | IC50 | SMILES
1 | < 5 µM | C#Cc1ccc2nc(Nc3cc(CN4CCCC4)cc(NC(C)=O)c3)ncc2c1 [Example 127, N-(3-(6-ethynylquinazolin-2-ylamino)-5-(pyrrolidin-1-ylmethyl)phenyl)-acetamide]
2 | < 5 µM | CC(=O)Nc1cc(CN2CCOCC2)cc(Nc2ncc3cc(Br)cc(Cl)c3n2)c1 [Example 128, N-(3-(6-bromo-8-chloro-quinazolin-2-ylamino)-5-(morpholinomethyl)-phenyl)-acetamide]
3 | < 5 µM | C#Cc1ccc2nc(Nc3cc(NC(C)=O)cc(NC(C)=O)c3)ncc2c1Cl [Example 130, N,N′-(5-(5-chloro-6-ethynylquinazolin-2-ylamino)-1,3-phenylene-) diacetamide]
4 | < 5 µM | CC(=O)Nc1cc(CN2CCOCC2)cc(Nc2ncc3cc(-c4nccs4)ccc3n2)c1 [Example 133, N-(3-(morpholinomethyl)-5-(6-(thiazol-2-yl)-quinazolin-2-ylamino)-phenyl)acetamide]
5 | < 5 µM | CC(=O)Nc1cc(CN(C)C)cc(Nc2ncc3cc(Br)cc(F)c3n2)c1 [Example 135, N-(3-(6-Bromo-8-fluoroquinazolin-2-ylamino)-5-((dimethylamino)-methyl)phenyl)acetamide]
6 | < 5 µM | C#Cc1ccc2nc(Nc3cc(CN)cc(NC(C)=O)c3)ncc2c1 [Example 137, N-(3-(aminomethyl)-5-(6-ethynylquinazolin-2-ylamino)phenyl)acetamide]
7 | < 5 µM | C#Cc1ccc2nc(Nc3ccccc3)ncc2c1 [Example 138, 6-ethynyl-N-phenyl-quinazolin-2-amine]
8 | < 5 µM | C#Cc1ccc2nc(Nc3cc(CN4CCOCC4)cc(NC(=O)C(C)C)c3)ncc2c1 [Example 142, N-(3-(6-ethynylquinazolin-2-ylamino)-5-(morpholino-methyl)phenyl)-isobutyramide]
9 | < 5 µM | Brc1ccc2nc(Nc3cc(CN4CCOCC4)cc(-c4nnn[nH]4)c3)ncc2c1 [Example 144, 6-bromo-N-(3-(morpholinomethyl)-5-(1H-tetrazol-5-yl)phenyl)-quinazolin-2-amine]
10 | < 5 µM | CC#Cc1ccc2nc(Nc3cc(CN(C)C)cc(NC(C)=O)c3)ncc2c1 [Example 148, N-(3-((dimethylamino)-methyl)-5-(6-(prop-1-ynyl)quinazolin-2-ylamino)phenyl)acetamide]
11 | < 5 µM | COc1cc2nc(Nc3ccc(N4CCOCC4)cc3)ncc2cc1-c1cn[nH]c1 [Example 150, 7-methoxy-N-(4-morpholinophenyl)-6-(1H-pyrazol-4-yl)quinazolin-2-amine]
12 | < 5 µM | CC(=O)Nc1cc(Nc2ncc3cc(Br)ccc3n2)cc(-c2cn[nH]c2)c1 [Example 153, N-(3-(6-bromoquinazolin-2-ylamino)-5-(1H-pyrazol-4-yl)phenyl)acetamide]
13 | < 5 µM | COc1cc(-c2nccs2)c(-c2nccs2)c2cnc(Nc3ccc(N4CCOCC4)cc3)nc12 [Example 169, 8-methoxy-N-(4-morpholinophenyl)-5,6-di(thiazol-2-yl)quinazolin-2-amine]
14 | 5 to 10 µM | C#Cc1cc2cnc(Nc3cc(OC)cc(-n4nnnc4C)c3)nc2cc1OC [Example 172, 6-ethynyl-7-methoxy-N-(3-methoxy-5-(5-methyl-1H-tetrazol-1-yl)phenyl)-quinazolin-2-amine]
15 | < 5 µM | COc1cc2nc(Nc3cc(CN4CCOCC4)cc(NC(C)=O)c3)ncc2cc1-c1cn[nH]c1 [Example 175, N-(3-(7-methoxy-6-(1H-pyrazol-4-yl)quinazolin-2-ylamino)-5-(morpholino-methyl)phenyl)acetamide]

Further lines, the compound ahead of its results:

Row | SMILES | IC50
16 | CC(=O)Nc1cc(CN2CCCC2)cc(Nc2ncc3cc(-c4nccs4)ccc3n2)c1 [Example 126, N-(3-(pyrrolidin-1-ylmethyl)-5-(6-(thiazol-2-yl)quinazolin-2-ylamino)-phenyl)acetamide] | < 5 µM
17 | C#Cc1cc(Cl)c2nc(Nc3cc(CN4CCOCC4)cc(NC(C)=O)c3)ncc2c1 [Example 129, N-(3-(8-chloro-6-ethynyl-quinazolin-2-ylamino)-5-(morpholinomethyl)-phenyl)-acetamide] | < 5 µM
18 | CC(=O)Nc1cc(CN2CCOCC2)cc(Nc2ncc3cc(-c4cnoc4)ccc3n2)c1 [Example 136, N-(3-(6-(isoxazol-4-yl)quinazolin-2-ylamino)-5-(morpholinomethyl)-phenyl)-acetamide] | < 5 µM
19 | C#Cc1cc(F)c2nc(Nc3cc(CN(C)C)cc(NC(C)=O)c3)ncc2c1 [Example 139, N-(3-((Dimethylamino)methyl)-5-(6-ethynyl-8-fluoroquinazolin-2-ylamino)-phenyl)acetamide] | < 5 µM
20 | COc1cc2nc(Nc3cc(CN4CCOCC4)cc(NC(C)=O)c3)ncc2cc1-c1nccs1 [Example 140, N-(3-(7-methoxy-6-(thiazol-2-yl)quinazolin-2-ylamino)-5-(morpholino-methyl)phenyl)-acetamide] | < 5 µM
21 | C#Cc1ccc2nc(Nc3cc(CN4CCNCC4)cc(NC(C)=O)c3)ncc2c1 [Example 141, N-(3-(6-ethynylquinazolin-2-ylamino)-5-(piperazin-1-ylmethyl)phenyl)acetamide] | < 5 µM
22 | C#Cc1ccc2nc(Nc3cc(CN4CCOCC4)cc(NS(C)(=O)=O)c3)ncc2c1 [Example 143, N-(3-(6-ethynylquinazolin-2-ylamino)-5-(morpholino-methyl)phenyl)methane-sulfonamide] | < 5 µM
23 | CC(=O)Nc1cc(CN2CCOCC2)cc(Nc2ncc3cc(Br)ccc3n2)c1 [Example 145, N-(3-(6-bromoquinazolin-2-ylamino)-5-(morpholino-methyl)phenyl)acetamide] | < 5 µM
24 | C#Cc1ccc2nc(Nc3cc(NC(C)=O)cc(-c4ccncc4)c3)ncc2c1 [Example 146, N-(3-(6-ethynylquinazolin-2-ylamino)-5-(pyridin-4-yl)phenyl)acetamide] | < 5 µM
25 | CC(=O)Nc1cc(CN(C)C)cc(Nc2ncc3cc(Br)ccc3n2)c1 [Example 147, N-(3-(6-bromoquinazolin-2-ylamino)-5-((dimethyl-amino)methyl)phenyl)-acetamide] | < 5 µM
26 | C#Cc1ccc2nc(Nc3cc(CN4CCOCC4)cc(-c4nnn[nH]4)c3)ncc2c1 [Example 149, 6-ethynyl-N-(3-(morpholinomethyl)-5-(1H-tetrazol-5-yl)phenyl)-quinazolin-2-amine] | < 5 µM
27 | N#Cc1cc(CN2CCOCC2)cc(Nc2ncc3cc(Br)ccc3n2)c1 [Example 151, 3-(6-bromoquinazolin-2-ylamino)-5-(morpholino-methyl)benzonitrile] | < 5 µM
28 | C#Cc1ccc2nc(Nc3cc(C#N)cc(CN4CCOCC4)c3)ncc2c1 [Example 152, 3-(6-ethynylquinazolin-2-ylamino)-5-(morpholino-methyl)benzonitrile] | < 5 µM
29 | C#Cc1ccc2nc(Nc3cc(OC)cc(-n4nnnc4C)c3)ncc2c1 [Example 156, 6-ethynyl-N-(3-methoxy-5-(5-methyl-1H-tetrazol-1-yl)phenyl)quinazolin-2-amine] | < 5 µM
30 | C#Cc1ccc2nc(Nc3cc(-c4ccncc4)cc(N4CCOCC4)c3)ncc2c1 [Example 157, 6-ethynyl-N-(3-morpholino-5-(pyridin-4-yl)phenyl)quinazolin-2-amine] | < 5 µM
31 | C#Cc1ccc2nc(Nc3cc(-c4cn[nH]c4)cc(N4CCOCC4)c3)ncc2c1 [Example 158, 6-ethynyl-N-(3-morpholino-5-(1H-pyrazol-4-yl)phenyl)-quinazolin-2-amine] | < 5 µM
32 | C#Cc1ccc2nc(Nc3cc(-c4cccnc4)cc(N4CCOCC4)c3)ncc2c1 [Example 159, 6-ethynyl-N-(3-morpholino-5-(pyridin-3-yl)phenyl)quinazolin-2-amine] | < 5 µM
33 | C#Cc1ccc2nc(Nc3cc(-c4ccncc4F)cc(N4CCOCC4)c3)ncc2c1 [Example 160, 6-ethynyl-N-(3-(3-fluoro-pyridin-4-yl)-5-morpholinophenyl)-quinazolin-2-amine] | < 5 µM
34 | C#Cc1ccc2nc(Nc3cc(CN4CCOCC4)cc(NC(C)=O)c3)ncc2c1F [Example 161, N-(3-(6-ethynyl-5-fluoro-quinazolin-2-ylamino)-5-(morpholinomethyl)-phenyl)-acetamide] | < 5 µM
35 | C#Cc1ccc2nc(Nc3cc(CN4CCOCC4)cc(NS(C)(=O)=O)c3)ncc2c1F [Example 162, N-(3-(6-ethynyl-5-fluoro-quinazolin-2-ylamino)-5-(morpholinomethyl)-phenyl)-methanesulfonamide] | < 5 µM
36 | COc1cc(-c2nccs2)c(-c2nccs2)c2cnc(Nc3ccc(C(=O)N4CCOCC4)cc3)nc12 [Example 170, (4-(8-methoxy-5,6-di(thiazol-2-yl)quinazolin-2-ylamino)phenyl)-(morpholino)methanone] | 5 to 10 µM
37 | COc1cc2cnc(Nc3cc(CN4CCOCC4)cc(NC(C)=O)c3)nc2cc1OC [Example 174, N-(3-(6,7-dimethoxy-quinazolin-2-ylamino)-5-(morpholinomethyl)-phenyl)acetamide] | < 5 µM
